Experimental data taken from ChEMBL document CHEMBL1125959, “Synthesis and DNA binding properties of an amidine-linked and phenyl-containing analogue of distamycin A” (Bioorg Med Chem Lett, 1991).

Assays:
[1] = tested on: Nucleic Acid; assay: The apparent DNA binding constant to bind with calf thymus DNA was determined by ethidium displacement assay; format: nucleic-acid assay; conditions: Bos taurus
[2] = tested on: Nucleic Acid; assay: The apparent DNA binding constant to bind with T4 DNA was determined by ethidium displacement assay; format: nucleic-acid assay

| K app [1] [M⁻¹] | K app [2] [M⁻¹] | SMILES |
| --- | --- | --- |
| 770000 | – | Cn1cc(NC(=O)c2cc(NC(=O)c3cc(NC=O)cn3C)cn2C)cc1C(=O)NCCC(=N)N |
| 65000 | 120000 | CN(C)CC/N=C(\N)c1cccc(NC(=O)c2cccc(NC=O)c2)c1 |
